These results are taken from PMC9569447 (International Journal of Molecular Sciences, 2022).

Series [1] concerns the target T1, human V1a receptor (Homo sapiens, UniProt P37288).
T1 construct: expressed in transfected cells; host or cells: CHO
As to the kind of experiment: In vitro functional assay at V1aR (cytosolic Ca2+ mobilization, fluorimetric). The format is cell-based. The following applies: agonist activity, result in words. How it is done:
The cells were suspended in DMEM buffer (Invitrogen, Carlsbad, CA, USA) complemented with 0.1% FCS, then distributed in microplates at a density of 4.5 × 10^4 cells/well. The fluorescent probe (Fluo4 Direct, Invitrogen, Carlsbad, CA, USA) mixed with probenicid in HBSS buffer (Invitrogen, Carlsbad, CA, USA) complemented with 20 mM HEPES (Invitrogen; Carlsbad, CA, USA) (pH 7.4) was then added into each well and equilibrated with the cells for 60 min at 37 °C then 15 min at 22 °C. The assay plates were positioned in a microplate reader (CellLux, PerkinElmer, Waltham, MA, USA) followed by the addition of the test compound ASK2131, reference agonist or HBSS buffer (basal control), and the measurements of changes in fluorescence intensity which varies proportionally to the free cytosolic Ca^2+ ion concentration. For stimulated control measurements, AVP at 1 μM was added in separate assay wells. The results were expressed as a percent of the control response to 1 μM AVP. The standard reference agonist was AVP, which was tested in each experiment at several concentrations to generate a concentration-response curve from which its EC50 value was calculated.
In general terms: A change in cytosolic calcium serves as a functional read-out for many receptors and channels.

In series [2] the target is T2, human V2 receptor (Homo sapiens, UniProt P30518).
T2 construct: expressed in transfected cells; host or cells: CHO
T2 sequence (P30518 whole entry): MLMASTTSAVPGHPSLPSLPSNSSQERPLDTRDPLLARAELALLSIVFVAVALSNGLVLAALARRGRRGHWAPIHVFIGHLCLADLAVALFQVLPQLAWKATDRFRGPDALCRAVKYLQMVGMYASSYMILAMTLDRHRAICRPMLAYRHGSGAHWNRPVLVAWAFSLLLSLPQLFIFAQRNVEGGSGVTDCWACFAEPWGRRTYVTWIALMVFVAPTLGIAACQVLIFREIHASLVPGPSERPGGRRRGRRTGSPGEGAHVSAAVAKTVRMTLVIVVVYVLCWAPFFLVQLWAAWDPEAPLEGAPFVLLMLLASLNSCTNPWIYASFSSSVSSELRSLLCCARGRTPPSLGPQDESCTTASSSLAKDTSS
As to the kind of experiment: In vitro functional assay at V2R (cAMP production, HTRF). The following applies: result in words. Format: cell-based. The protocol:
Evaluation of the agonist activity of ASK2131 at the human V2 receptor expressed in stably transfected CHO cells was conducted by measuring its effects on cAMP production using the HTRF detection method. The cells were suspended in HBSS buffer (Invitrogen, Carlsbad, CA) complemented with 20 mM HEPES (pH 7.4), 0.01% BSA and 500 μM IBMX, then distributed in microplates at a density of […] cells/well and incubated for 30 min at room temperature in the absence (control) or presence of the test compound or the reference agonist.
For stimulated control measurement, separate assay wells contained 1 nM AVP. Following incubation, the cells were lysed, and the fluorescence acceptor (D2-labeled cAMP) and fluorescence donor (anti-cAMP antibody labeled with europium cryptate) were added. After 60 min at room temperature, the fluorescence transfer was measured at λex = 337 nm and λem = 620 and 665 nm using a microplate reader (Envision, Perkin Elmer, Waltham, MA, USA). The cAMP concentration was determined by dividing the signal measured at 665 nm by that measured at 620 nm (ratio).
The results were expressed as a percent of the control response to 1 nM AVP. The standard reference agonist was AVP, which was tested in each experiment at several concentrations to generate a concentration-response curve from which its EC50 value was calculated.
Background: Cyclic AMP is a second messenger, typically raised through Gs and lowered through Gi signalling.

Series [3] concerns diet-induced obese (DIO) Sprague Dawley rats. As to the kind of experiment: Post-treatment serum levels after the 22-day treatment. Format: in vivo, rat. How it is done: Cardiac puncture was used to collect blood for analysis 2 h post final injection. Commercially available enzyme-linked immunosorbent assays (ELISA) were used for quantitative assessment of leptin (cat. # EZRL-83K; MilliporeSigma, Burlington, MA, USA), insulin (cat. # EZRMI-13K; MilliporeSigma, Burlington, MA, USA), and adiponectin (cat. # EZRAPD-62K MilliporeSigma, Burlington, MA, USA). Serum samples were diluted 1:500 for the adiponectin ELISA using the sample diluent provided with the kit. All ELISAs were completed following the manufacturers recommendations. Levels of glucose, cholesterol (total, HDL, and calculated LDL), triglycerides, ALT, and AST were determined in the serum on a Modular P chemistry analyzer (Roche Diagnostics, Risch-Rotkreuz, Switzerland) by the University of Washington Nutrition and Obesity Research Center’s Analytic Core (Seattle, WA, USA).

[4] abbreviates: serum ELISA, after 22 days, mean ± SEM, n = 6 (Oxytocin n = 4).
The mark [5] stands for this setting: serum, 2 h post final injection after 22 days, mean ± SEM, n = 6 (Oxytocin n = 4).

Entries after “also recorded” stand apart in the source; their conditions may differ. Marks after values point to notes of the source that are not given here. Numbered stars: 1 amine (or outer) side, 2 acyl side, 3 side chain; on linkers, the order of the positions; unused ones are H or OH. Bridge positions count the residues as written; N and C are the ends. Square brackets hold non-standard residues; d marks the D form. Side chains are listed from the residue outwards. Peptide text beside a SMILES is read from it. * marks the point of attachment. PEG8 = NCCOCCOCCOCCOCCOCCOCCOCCOCCC(=O)O; Palmitoyl = CCCCCCCCCCCCCCCC(=O)*; hCys = N[C@@H](CCS)C(=O)O; X1 = O=C(CC[*:2])[*:1]

T1 sequence (P37288 whole entry): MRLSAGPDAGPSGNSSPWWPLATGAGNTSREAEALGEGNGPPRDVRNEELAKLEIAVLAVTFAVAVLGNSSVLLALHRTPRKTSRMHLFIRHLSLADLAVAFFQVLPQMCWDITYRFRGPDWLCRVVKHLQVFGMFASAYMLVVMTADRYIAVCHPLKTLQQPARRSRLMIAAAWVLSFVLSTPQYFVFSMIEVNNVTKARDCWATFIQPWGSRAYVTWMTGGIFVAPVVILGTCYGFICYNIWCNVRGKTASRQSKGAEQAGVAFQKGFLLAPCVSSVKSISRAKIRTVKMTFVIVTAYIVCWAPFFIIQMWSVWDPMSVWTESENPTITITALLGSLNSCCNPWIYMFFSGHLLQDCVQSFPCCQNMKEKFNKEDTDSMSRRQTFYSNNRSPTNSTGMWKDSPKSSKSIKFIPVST

For the compound `CCCCCCCCCCCCCCCC(=O)NCCOCCOCCOCCOCCOCCOCCOCCOCCC(=O)NCCCC[C@H](NC(=O)CNC(=O)[C@@H]1CCSCCC(=O)N[C@@H](Cc2ccc(O)cc2)C(=O)N[C@@H]([C@@H](C)CC)C(=O)N[C@@H](CCC(N)=O)C(=O)N[C@@H](CC(N)=O)C(=O)N1)C(=O)NCC(N)=O` [ASK2131] (YIQN[hCys]GK([PEG8-Palmitoyl])G-NH2; linker N-5 via X1), the V1aR activation entry in series [1] is given as “did not display V1aR activation; also recorded: Neither molecule, ASK1476 or ASK2131, is active”. In series [2], the V2R activation result is “potent activator of V2R; also recorded: activate V2R”. Besides, the “Calculated LDL” value in series [3] (Calculated LDL = Cholesterol − (HDL + Triglycerides/5), serum after 22 days, mean ± SEM) is on record as 15 ± 5 mg/dL. Also, in series [3] (after 22 days of treatment, result in words), the “Cholesterol vs. vehicle treated animals” value was “significantly reduced”. In series [3] (setting [4]), this compound yielded an Insulin of 6.7 ± 1.0 ng/mL and a Leptin of 39 ± 9.1 ng/mL. The compound also registered an Adiponectin in series [3] (serum ELISA, diluted 1:500, after 22 days, mean ± SEM, n = 6 (Oxytocin n = 4)) of 62.4 ± 7.3 ng/mL. Also, in series [3] (setting [5]), the ALT turned out to be 26 ± 2 U/L, the AST is given as 73 ± 8 U/L, the Cholesterol is 67 ± 6 ^b mg/dL and the Glucose was 237 ± 12 mg/dL. In series [3] (setting [5]), the HDL came out at 21 ± 2 mg/dL and the Triglycerides is reported as 182 ± 30 mg/dL.
